Laboratory results reported in patent US7960556B2, “Thiadiazole derivatives for the treatment of neuro-degenerative diseases” (NV reMYND, priority 2006, dated 2011).

Test system: α-synuclein cytotoxicity in M17-SYNwt cells
Assay: α-synuclein cytotoxicity assay: LDH leakage from paraquat-treated M17-SYNwt neuroblastoma cells;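 note: paraquat at 32 mM co-added with compound, 40 h exposure, LDH activity released into the culture medium measured, references are DMSO-only cells and paraquat plus DMSO cells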
Settings: Homo sapiens, Neuroblastoma cell; for Emax: read-out: % Inhib.
Text: An α-synuclein expression plasmid was constructed by sub-cloning the NcoI/XhoI fragment from 212T-SYN(WT) (Griffioen et al., Biochem Biophys Acta (2006) 1762(3):312-318) containing the cDNA of human wild type α-synuclein correspondingly into a standard mammalian expression vector pcDNA3.1 (Invitrogen) resulting into the plasmid pcDNA3.1-SYNwt. Plasmids pcDNA3.1 and pcDNA3.1-SYNwt were transfected to human neuroblastoma cells (ATCC No. CRL-2267) and independent clonal lines with the plasmids stably integrated into the genome were selected. […] Over-expression of α-synuclein in M17-SYNwt cell lines was confirmed by Western analysis.
Due to the high levels of α-synuclein M17-SYNwt cells are exquisitely sensitivity to paraquat, a well-known risk factor of synuclein-dependent neuronal degeneration. In degenerated or dead cells lactate dehydrogenase (LDH) is leaked out of the cells into the extracellular environment due to a loss of plasma-membrane integrity. This principle was used to determine cytotoxicity by quantifying the level of leaked LDH into the growth medium.
The detailed method for determining α-synuclein cytotoxicity was as follows: From appropriate precultures of M17 and M17-SYN cells were seeded at 50,000 cells/cm^2 in Optimem Reduced Serum without phenol red (available from InVitrogen, Cat. 31985-047) supplemented with 5% fetal calf serum, 1 mM sodium pyruvate, 1× non-essential amino acids, 500 μg/ml G418 0,5× antibiotic/antimycotic. After 3 hours of incubation at 37° C./5% CO2 paraquat was added to the cells (final concentration of 32 mM), together with the test compound and the cells were further incubated for 40 hours. Subsequently, LDH activity was determined using Promega Cytotox 96 Non-Radioactive cytotoxicity assay, (Cat. G1780) according the instructions of the supplier.
In these experiments, the control group consisted of M17-SYNwt cells treated with DMSO, the untreated paraquat group consisted of M17-SYNwt cells treated with paraquat and DMSO, and the treated paraquat group consisted of M17-SYNwt cells treated with paraquat and the test compound dissolved in DMSO.

Row | SMILES | EC50 [nM] | Emax [%]
1 | COc1ccc(S(=O)(=O)N2CCN(c3nc(Cc4cccc(OC)c4)ns3)CC2)cc1 [compound 53, 1-[4-methoxyphenylsulfonyl]-4-[3-(3-methoxybenzyl)-1,2,4-thiadiazol-5-yl]piperazine] | 1.4 | 83
2 | COc1ccc(S(=O)(=O)N(C)CCN(C)c2nc(Cc3cccc(OC)c3)ns2)cc1 [compound 215, N′-[4-methoxyphenylsulfonyl]-N-[3-(3-methoxybenzyl)-1,2,4-thiadiazol-5-yl]-N,N′-dimethylethane-1,2-diamine] | 301 | 105
3 | COc1ccc(S(=O)(=O)N2CCN(c3nc(Cc4ccc(C)cc4)ns3)CC2)cc1 [compound 68, 1-[4-methoxyphenylsulfonyl]-4-[3-(4-methylbenzyl)-1,2,4-thiadiazol-5-yl]piperazine] | 0.255 | 53
4 | CCc1ccc(S(=O)(=O)N2CCN(c3nc(Cc4ccc(F)cc4)ns3)CC2)cc1 [compound 197, 1-[4-ethylphenylsulfonyl]-4-[3-(4-fluoro-benzyl)-1,2,4-thiadiazol-5-yl]piperazine] | 535 | 84
5 | COc1cc(NC(=O)N2CCN(c3nc(Cc4ccc(F)cc4)ns3)CC2C)cc(OC)c1 (centres unmarked) [compound 29, N-(3,5-dimethoxyphenyl)-4-[3-(4-fluorobenzyl)-1,2,4-thiadiazol-5-yl]-2-methylpiperazine-1-carboxamide] |  | 51
6 | Cc1ccc(Cc2nsc(N3CCN(S(=O)(=O)c4ccc5ccccc5c4)CC3)n2)cc1 [compound 65, 1-[2-naphtylsulfonyl]-4-[3-(4-methylbenzyl)-1,2,4-thiadiazol-5-yl]piperazine] | 39.3 | 78
7 | Cc1ccc(Cc2nsc(N3CCN(C(=O)c4ccccc4F)C(C)C3)n2)cc1 (centres unmarked) [compound 149, 1-(2-fluorobenzoyl)-4-[3-(4-methylbenzyl)-1,2,4-thiadiazol-5-yl]-2-methylpiperazine] | 980 | 105
8 | COc1ccc(S(=O)(=O)NCCCNc2nc(Cc3cccc(OC)c3)ns2)cc1 [compound 211, N-[4-methoxyphenylsulfonyl]-N′-[3-(3-methoxybenzyl)-1,2,4-thiadiazol-5-yl]-propane-1,3-diamine] | 367 | 100
9 | CC1CN(c2nc(Cc3ccc(F)cc3)ns2)CCN1C(=O)c1ccc([N+](=O)[O-])cc1 (centres unmarked) [compound 184, 1-(4-nitrobenzoyl)-4-[3-(4-fluorobenzyl)-1,2,4-thiadiazol-5-yl]-2-methylpiperazine] |  | 52
10 | CC1CN(c2nc(Cc3ccc(F)cc3)ns2)CCN1C(=O)c1ccc2ccccc2c1 (centres unmarked) [compound 132, 1-(2-naphthoyl)-4-[3-(4-fluorobenzyl)-1,2,4-thiadiazol-5-yl]-2-methylpiperazine] | 260 | 74
11 | O=C(NCCN1CCN(c2nc(Cc3ccc(F)cc3)ns2)CC1)c1cccc(F)c1 [compound 105, 3-fluoro-N-{2-[4-[3-(4-fluorobenzyl)-1,2,4-thiadiazol-5-yl]piperazin-1-yl]ethyl}benzamide] |  | 115
12 | O=C(Nc1cccc(F)c1)N1CCN(c2nc(Cc3ccc(F)cc3)ns2)CC1 [compound 9, N-(3-fluorophenyl)-4-[3-(4-fluorobenzyl)-1,2,4-thiadiazol-5-yl]piperazine-1-carboxamide] | 520 | 53
13 | CCCCCCc1ccc(C(=O)N2CCN(c3nc(Cc4ccc(C)cc4)ns3)CC2)cc1 [compound 176, 1-(4-hexylbenzoyl)-4-[3-(4-methylbenzyl)-1,2,4-thiadiazol-5-yl]piperazine] |  | 77
14 | Fc1ccc(Cc2nsc(N3CCN(Cc4ccccc4)CC3)n2)cc1 [compound 113, 1-benzyl-4-[3-(4-fluorobenzyl)-1,2,4-thiadiazol-5-yl]piperazine] | 1540 | 65
15 | COc1ccc(C(=O)N2CCN(c3nc(Cc4ccc(F)cc4)ns3)CC2C)cc1 (centres unmarked) [compound 118, 1-(4-methoxybenzoyl)-4-[3-(4-fluorobenzyl)-1,2,4-thiadiazol-5-yl]-2-methylpiperazine] | 91.1 | 64
16 | COc1ccccc1S(=O)(=O)N1CCN(c2nc(Cc3ccc(F)cc3)ns2)CC1 [compound 195] | 56.7 | 99
17 | CC1CN(c2nc(Cc3ccc(F)cc3)ns2)CCN1C(=O)Cc1ccc(F)cc1 (centres unmarked) [compound 6] |  | 75
18 | Cc1ccc(Cc2nsc(N3CCN(S(=O)(=O)c4ccc([N+](=O)[O-])cc4)C(C)C3)n2)cc1 (centres unmarked) [compound 71, 1-[4-nitrophenylsulfonyl]-4-[3-(4-methylbenzyl)-1,2,4-thiadiazol-5-yl]-2-methylpiperazine] |  | 33
19 | CC1CN(c2nc(Cc3ccc(F)cc3)ns2)CCN1C(=O)c1ccccc1Br (centres unmarked) [compound 148, 1-(2-bromobenzoyl)-4-[3-(4-fluorobenzyl)-1,2,4-thiadiazol-5-yl]-2-methylpiperazine] | 860 | 56

Row | SMILES | EC50 [nM] | Emax [%]
20 | CC1CN(c2nc(Cc3ccc(F)cc3)ns2)CCN1S(=O)(=O)c1ccc(C(C)(C)C)cc1 (centres unmarked) [compound 54, 1-[4-tert-butylphenylsulfonyl]-4-[3-(4-fluorobenzyl)-1,2,4-thiadiazol-5-yl]-2-methylpiperazine] |  | 60
21 | COc1cccc(Cc2nsc(N3CCN(C(=O)c4ccccc4)C(C)C3)n2)c1 (centres unmarked) [compound 173, 1-benzoyl-4-[3-(3-methoxybenzyl)-1,2,4-thiadiazol-5-yl]-2-methylpiperazine] |  | 85
22 | Cc1ccc(Cc2nsc(N3CCN(S(=O)(=O)c4ccc(C(C)(C)C)cc4)C(C)C3)n2)cc1 (centres unmarked) [compound 42, 1-[4-tert-butylphenylsulfonyl]-4-[3-(4-methylbenzyl)-1,2,4-thiadiazol-5-yl]-2-methylpiperazine] | 870 | 33
23 | COc1cccc(Cc2nsc(N3CCN(C(=O)c4ccc(Br)cc4)C(C)C3)n2)c1 (centres unmarked) [compound 170, 1-(4-bromobenzoyl)-4-[3-(3-methoxybenzyl)-1,2,4-thiadiazol-5-yl]-2-methylpiperazine] |  | 89
24 | Cc1ccc(Cc2nsc(N3CCN(S(=O)(=O)c4ccc(F)cc4)C(C)C3)n2)cc1 (centres unmarked) [compound 58, 1-[4-fluorophenylsulfonyl]-4-[3-(4-methylbenzyl)-1,2,4-thiadiazol-5-yl]-2-methylpiperazine] | 61 | 58
25 | CCCCS(=O)(=O)N1CCN(c2nc(Cc3ccc(C)cc3)ns2)CC1 [compound 83, 1-(butylsulfonyl)-4-[3-(4-methylbenzyl)-1,2,4-thiadiazol-5-yl]piperazine] | 2640 | 36
26 | O=C(Cc1ccc(F)cc1)NCCN1CCN(c2nc(Cc3ccc(F)cc3)ns2)CC1 [compound 107, 2-(4-fluorophenyl)-N-{2-[4-[3-(4-fluorobenzyl)-1,2,4-thiadiazol-5-yl]piperazin-1-yl]ethyl}acetamide] | 260 | 80
27 | COc1ccc(S(=O)(=O)N2CCN(c3nc(Cc4ccc(Cl)cc4)ns3)CC2)cc1 [compound 31, 1-[4-methoxyphenylsulfonyl]-4-[3-(4-chlorobenzyl)-1,2,4-thiadiazol-5-yl]piperazine] | 0.169 | 59
28 | Cc1ccc(Cc2nsc(N3CCN(C(=O)c4ccc(C(F)(F)F)cc4)CC3)n2)cc1 [compound 171, 1-(4-trifluoromethylbenzoyl)-4-[3-(4-methylbenzyl)-1,2,4-thiadiazol-5-yl]piperazine] |  | 86
29 | O=S(=O)(c1cc(Cl)ccc1Cl)N1CCN(c2nc(Cc3ccc(Cl)cc3)ns2)CC1 [compound 39, 1-[2,5-dichlorophenylsulfonyl]-4-[3-(4-chlorobenzyl)-1,2,4-thiadiazol-5-yl]piperazine] | 160 | 25
30 | CCCCc1ccc(C(=O)N2CCN(c3nc(Cc4ccc(C)cc4)ns3)CC2C)cc1 (centres unmarked) [compound 117, 1-(4-butylbenzoyl)-4-[3-(4-methylbenzyl)-1,2,4-thiadiazol-5-yl]-2-methylpiperazine] | 84.1 | 82
31 | CC1CN(c2nc(Cc3ccc(F)cc3)ns2)CCN1C(=O)/C=C/c1ccccc1 (centres unmarked) [compound 87, 1-[(2E)-3-phenylprop-2-enoyl]-4-[3-(4-fluorobenzyl)-1,2,4-thiadiazol-5-yl]-2-methylpiperazine] | 2490 | 94
32 | CC1CN(c2nc(Cc3ccc(Cl)cc3)ns2)CCN1C(=O)/C=C/c1ccccc1 (centres unmarked) [compound 86, 1-[(2E)-3-phenylprop-2-enoyl]-4-[3-(4-chlorobenzyl)-1,2,4-thiadiazol-5-yl]2-methylpiperazine] | 1130 | 81
33 | CC1CN(c2nc(Cc3ccc(F)cc3)ns2)CCN1S(=O)(=O)c1ccccc1 (centres unmarked) [compound 47, 1-phenylsulfonyl-4-[3-(4-fluorobenzyl)-1,2,4-thiadiazol-5-yl]-2-methylpiperazine] |  | 129
34 | O=C(NCCN1CCN(c2nc(Cc3ccc(F)cc3)ns2)CC1)c1ccccc1 [compound 104, N-{2-[4-[3-(4-fluorobenzyl)-1,2,4-thiadiazol-5-yl]piperazin-1-yl]ethyl}benzamide] | 3820 | 65
35 | O=C(Cc1ccccc1)NCCN1CCN(c2nc(Cc3ccc(F)cc3)ns2)CC1 [compound 108, 2-phenyl-N-{2-[4-[3-(4-fluorobenzyl)-1,2,4-thiadiazol-5-yl]piperazin-1-yl]ethyl}acetamide] | 2060 | 63
36 | O=C(c1ccc(F)cc1)N1CCN(c2nc(Cc3ccccc3)ns2)CC1 [compound 163, 1-(4-fluorobenzoyl)-4-[3-benzyl-1,2,4-thiadiazol-5-yl]piperazine] | 3610 | 67
37 | CCCCCc1ccc(C(=O)N2CCN(c3nc(Cc4ccc(C)cc4)ns3)CC2C)cc1 (centres unmarked) [compound 134, 1-(4-pentylbenzoyl)-4-[3-(4-methylbenzyl)-1,2,4-thiadiazol-5-yl]-2-methylpiperazine] | 300 | 75
38 | Cc1ccccc1NC(=O)N1CCN(c2nc(Cc3ccc(F)cc3)ns2)CC1 [compound 15, N-(2-methylphenyl)-4-[3-(4-fluorobenzyl)-1,2,4-thiadiazol-5-yl]piperazine-1-carboxamide] | 5010 | 65
